Measured values reported in article PMC2698043 (Journal of medicinal chemistry, 2009).

How the values were obtained:
human PNP [1] = biological target: T1, human PNP (Homo sapiens, UniProt P00491); experiment: biochemical
blood PNP = blood PNP (Mus musculus, UniProt P23492); conditions: mice
human PNP [2] = biological target: T1, human PNP

T1 sequence (P00491 whole entry): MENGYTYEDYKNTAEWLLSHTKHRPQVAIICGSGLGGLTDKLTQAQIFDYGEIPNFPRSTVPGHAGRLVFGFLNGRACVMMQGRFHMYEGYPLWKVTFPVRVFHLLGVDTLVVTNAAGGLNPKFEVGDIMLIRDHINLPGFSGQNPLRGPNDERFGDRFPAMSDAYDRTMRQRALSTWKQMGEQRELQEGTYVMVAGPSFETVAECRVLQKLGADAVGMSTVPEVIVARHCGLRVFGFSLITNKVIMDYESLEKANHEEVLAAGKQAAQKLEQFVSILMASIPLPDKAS
blood PNP, sequence (P23492 whole entry): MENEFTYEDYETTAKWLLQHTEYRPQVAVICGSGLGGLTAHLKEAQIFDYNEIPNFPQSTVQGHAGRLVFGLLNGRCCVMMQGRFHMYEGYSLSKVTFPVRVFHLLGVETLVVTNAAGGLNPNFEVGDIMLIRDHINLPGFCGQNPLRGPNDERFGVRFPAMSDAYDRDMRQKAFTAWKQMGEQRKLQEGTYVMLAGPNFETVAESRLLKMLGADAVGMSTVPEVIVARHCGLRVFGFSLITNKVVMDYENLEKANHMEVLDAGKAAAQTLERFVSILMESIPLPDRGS

Kd (human PNP [1]) [pM]	time to complete inhibition of PNP catalytic activity (blood PNP; single 50 nmol dose, i.p. injection) [min]	inhibition of blood PNP catalytic activity (blood PNP; single oral dose, for a period of 25 days) [%]	times more active inhibitor than 9-deazahypoxanthine analogue 11 (human PNP [2])	SMILES
5.2	≤ 20	> 50	–	O=c1[nH]cnc2c(CNC(CO)CO)c[nH]c12 [Compound 10]
–	–	–	2 – 3 times	Nc1nc2c(CN[C@H](CO)[C@H](O)CO)c[nH]c2c(=O)[nH]1 [Compound 9, 2-Amino-7-({[(2R,3S)-1,3,4-trihydroxybutan-2-yl]amino}methyl)-3,5-dihydro-4Hpyrrolo[3,2-d]pyrimidin-4-one]
2.1	–	–	–	Nc1nc2c(CNC(CO)CO)c[nH]c2c(=O)[nH]1 [Compound 8, 2-Amino-7-{[(1,3-dihydroxypropan-2-yl)amino]methyl}-3,5-dihydro-4H-pyrrolo[3,2-d]pyrimidin-4-one]
